From patent US20030134859A1 (SANKYO COMPANY, LIMITED, priority 2000, published 2003)
Structures can show the parent of a compound that is named as a salt.

Tests used:
Assay type in all cases: cell-based
[1] = tested on: Mouse preadipocyte strain 3T3-L1; experiment: Inhibition of differentiation as an indication of acetic acid uptake; settings: Mus musculus, 3T3-L1, 0.1 μM test substance, control (0.01% dimethylsulfoxide) = 100%, read-out: Rate of Uptake (%) of [2-14C] acetic acid
Description: As the basal medium, Dulbecco's modified Eagle's (DEM) medium (NISSUI PHARMACEUTICAL CO., LTD) was used. […] All culturing in the present Test Example was carried out in a CO2 incubator at 37° C. and 10% CO2 concentration.
The successively cultured 3T3-L1 cells were inoculated in a Biocoat Collagen I 96-well white/clear plate (Becton Dickinson and Co.) at a concentration of 4,900 cells/well, and were cultured in the basal medium containing added 10% (v/v) inactivated bovine fetal serum (FBS) for 10 days.
The medium was replaced with a differentiation-inducing medium in which inactivated FBS (final concentration: 5%), insulin (Sigma-Aldrich Japan K. K., final concentration: 10 μg/mL), isobutyl methyl xanthine (Aldrich K. K., final concentration: 0.5 mM) and dexamethazone (final concentration: 1 μM) were added so as to be at the final concentrations indicated in the parentheses. The cells were divided in the following 2 groups and were cultured for 4 days; 1) in the presence of 0.01% (v/v) dimethylsulfoxide, and 2) in the presence of 0.01% (v/v) dimethylsulfoxide in which was dissolved 1 mM of the test substance (final concentration of 0.1 μM). Then, the medium was further replaced with a maintenance medium in which inactivated […] and insulin were added to the base medium so as to be at final concentrations of 5% and 100 ng/mL, respectively, and the cells were cultured for 2 days.
The inhibitory activity of the test compound against cell differentiation was assayed by using uptake of [2-^14C] acetic acid into the cultured cells as an indicator. […] Then the cells were further incubated with the newly prepared medium for 1 hr. After washing the well with PBS (−), the cells were dried. To these wells, 100 μL/well of a scintillation cocktail (Hewlett-Packard Co., MICROSCINT-20 PACKARD) were added and their radioactivities were determined with a Packard TopCont microplate Scintillation Counter (Hewlett-Packard Co., PACKARD) and the uptake level of [2-^14C] acetic acid into the cultured cell was calculated.
On the basis of the calculated uptake level of [2-^14C] acetic acid into the cultured cells, the relative uptake level of [2-^14C] acetic acid in the group treated with the test compound was calculated against the uptake level of [2-^14C] acetic acid in the presence of 0.01% (v/v) dimethylsulfoxide solution described in 1) (100%).
Value=Uptake Level (cpm) of [2-^14C] Acetic Acid in the Presence of the Test Substance
Control=Uptake Level (cpm) of [2-^14C] Acetic Acid in the Control Group (0.01% dimethylsulfoxide)
Uptake Rate (%) of [2-^14C] Acetic Acid=100×[Value]/[Control]

[2] = biological target: T1, human PPAR γ 2 (Homo sapiens, UniProt P37231); experiment: Inhibitory activity against PPAR γ transcription in the presence of agonist compound A, luciferase reporter; settings: in the presence of 10 nM compound A (agonist); MG63 cells transfected with pSG5-hPPARg and pGV-P2-PPRE; 24 hr
T1 construct: expressed in transfected cells; host or cells: human osteosarcoma MG63, transiently co-transfected with pSG5-hPPARg and the reporter pGV-P2-PPRE
T1 sequence (P37231 1-505): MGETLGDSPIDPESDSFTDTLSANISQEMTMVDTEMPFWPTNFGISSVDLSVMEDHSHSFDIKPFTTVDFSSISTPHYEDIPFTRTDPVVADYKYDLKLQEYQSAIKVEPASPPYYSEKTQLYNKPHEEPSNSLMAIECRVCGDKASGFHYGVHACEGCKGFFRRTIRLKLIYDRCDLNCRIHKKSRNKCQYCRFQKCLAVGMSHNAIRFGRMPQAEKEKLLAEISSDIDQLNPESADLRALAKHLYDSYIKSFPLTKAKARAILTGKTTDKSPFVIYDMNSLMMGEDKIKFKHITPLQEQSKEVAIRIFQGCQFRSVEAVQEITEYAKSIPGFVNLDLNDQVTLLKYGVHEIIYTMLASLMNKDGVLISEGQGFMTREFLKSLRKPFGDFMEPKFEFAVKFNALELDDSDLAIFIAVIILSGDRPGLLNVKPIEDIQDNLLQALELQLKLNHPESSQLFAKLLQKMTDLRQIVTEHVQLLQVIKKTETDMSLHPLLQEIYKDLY
From the text: The primers of the polymerase chain reaction (hereinafter “PCR”) were designed according to the gene sequence of human PPAR γ 2 (GenBANK accession No. D83233). […] For this, 2 kinds of polynucleotides shown in the sequence numbers 1 and 2 in the sequence table described below (hereinafter “S1” and “AS1”, respectively) were used as PCR primers.
In order to determine transcriptional activity via PPAR γ, 2 kinds of polynucleotides represented in sequence numbers 3 and 4 in the sequence table described below (hereinafter “S2” and “AS2”, respectively) were used for construction of the reporter plasmid having PPAR responsive element. The DNA fragment inserted was designed based on the gene sequence in the promoter region of rat acylCo-A oxidase (J. D. Tugwood, EMBO J., 11 (2), pp433-439 (1992)). For insertion of the DNA fragment into the reporter plasmid pGV-P2 (TOYO INK MFG CO., LTD), a NheI site and an XhoI site were added to the S2 and AS2, respectively.
Using cDNA library (Clontech) derived from human adipose tissue as a template, DNA oligomers S1 and AS1 that were synthesized in the procedure 1 as primers and Ex-Taq™ (TAKARA BIO INC.) as a thermostable DNA polymerase-PCR was carried out. […] Each cycle consisted of incubation at 94° C. for 1 min for denaturation of the template, then at 55° C. for 30 sec for annealing of DNA oligomers the PCR primer, and then at 72° C. for 30 sec for extension of the chain. The obtained DNA fragments with approximately 1500 base pairs were digested at the Bgl II sites and were inserted into BamHI sites of pSG5. Thus a human PPAR γ expression plasmid named pSG5-hPPAR g was obtained.
Vector pGV-P2 digestion products was prepared by digestion using the restriction enzymes, NheI and XhoI, and purified by 1.0% agarose-gel electrophoresis. The DNA oligomers, S2 and AS2 obtained in Procedure 2, were mixed together and were incubated in a hot bath at 94° C. for 1 min. After the annealing was partially broken, they were further incubated at 25° C. for 1 hr. Thus double-stranded DNA with annealing of S2 and AS2 was formed. Then, the terminus of the double-stranded DNA with annealing of S2 and AS2 was phosphorylated with DNA polynucleotide kinase (TOYOBO CO., LTD). After that, it was ligated to the pGV-P2 digestion products which were prepared previously using the NheI site and XhoI site. Thus the reporter plasmid pGV-P2-PPRE was obtained.
Using the plasmid obtained by the procedures 3 and 4, transformation of Escherichia coli HB-101 strain was carried out by conventional methods. HB-101 strain having the plasmid was incubated in L-broth medium (containing 10 g of trypton (Difco), 5 g of yeast extract (Difco), 5 g of sodium chloride in 1 L of aqueous solution) containing 100 μg/ml of ampicillin at 37° C. for 17 hrs. Then, each plasmid was purified by the alkaline-SDS method and employed for the gene transfection to mammalian cells. After mixing the pSG5-hPPARg, PGV-P2-PPRE and LipofectAMINE reagent (GIBCO BRL), the human osteosarcoma MG63 was transiently transfected. Then the cells were recovered. The recovered cells were plated on a 96-well plate so as to be 30,000 cells/well and cultured in a CO2 incubator (NAPCO) at 37° C. for 24 hr under the condition of 5% CO2, 95%-RH.
Ten (10) nM of the following compound A (although compound A is described here as a representative compound, the compound is not limited to compound A, if the compound exerts a PPAR r agonistic activity) and various concentrations of the test compound were added to culturing medium of the cells prepared in the Procedure 5.

[3] = tested on: Rat white adipocytes; experiment: Inhibition of the differentiation of adipocytes (Oil Red O); settings: Rattus norvegicus, Adipocyte, 120 h, 100 nM test compound; 5 days; Oil Red O ABS550; control = 100%, blank = 0%; Table 3; read-out: Rate of Differentiation (%)
Outline: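 Rat white preadipocytes, 5,000 cells/well, given differentiation medium with compound at 100 nM final (0.1% DMSO) for 5 days at 37 °C. Lipid stained with Oil Red O, eluted in DMSO, read at 550 nm; differentiation % relative to DMSO control (100%) and blank (0%).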

| Compound | IC50 [2] [µM] | activity at 0.1 µM [1] [%] | activity at 0.1 µM [3] [%] |
| --- | --- | --- | --- |
| CCCCCCCCN(CCCCC)c1ccc(-c2ccc(NC(=O)c3cc([N+](=O)[O-])ccc3Cl)cc2)cc1 [Example 221, N-[4-[4-(N-Octyl-N-pentylamino)phenyl]phenyl]-(2-chloro-5-nitrophenyl)carboxamide mono-hydrochloride] | 0.034 | – | 40.2 |
| CC(O)c1ccc(NC(=O)c2cc([N+](=O)[O-])ccc2Cl)cc1 (stereo not shown) [Example 238, N-[4-(1-Hydroxyethyl)phenyl]-(2-chloro-5-nitrophenyl)carboxamide] | 0.0093 | – | 64 |
| O=C(Nc1ccc(-c2ccc(NC(=S)Nc3cccnc3)cc2)cc1)c1cc([N+](=O)[O-])ccc1Cl [Example 256, N-[4-[4-[(Pyridin-3-yl)aminothiocarbonylamino]phenyl]phenyl)-(2-chloro-5-nitrophenyl)carboxamide] | 0.012 | – | 38.2 |
| O=C(NCCc1ccc(NC(=O)c2cc([N+](=O)[O-])ccc2Cl)cc1)Nc1ccccc1 [Example 268, N-[4-(2-Phenylaminocarbonylaminoethyl)phenyl]-(2-chloro-5-nitrophenyl)carboxamide] | 0.025 | – | 54.8 |
| O=C(Nc1ccc(CCNC(=S)Nc2ccccc2)cc1)c1cc([N+](=O)[O-])ccc1Cl [Example 269, N-[4-(2-Phenylaminothiocarbonylaminoethyl)phenyl]-(2-chloro-5-nitrophenyl)carboxamide] | 0.03 | – | 52.9 |

Continued by falling IC50 [2], values first:

| IC50 [2] [µM] | Compound | activity at 0.1 µM [1] [%] | activity at 0.1 µM [3] [%] |
| --- | --- | --- | --- |
| 0.082 | O=C(Nc1ccc(C(=O)N2CCOCC2)cc1)c1cc([N+](=O)[O-])ccc1Cl [Example 158, N-[4-(Morpholin-4-ylcarbonyl)phenyl]-(2-chloro-5-nitrophenyl)carboxamide] | – | – |
| 0.081 | O=C(Nc1ccc(N2CCN(C(=O)c3cccnc3)CC2)cc1)c1cc([N+](=O)[O-])ccc1Cl [Example 227, N-[4-[4-(Pyridin-3-ylcarbonyl)piperazin-1-yl]phenyl]-2-(chloro-5-nitrophenyl)carboxamide] | – | 39.7 |
| 0.026 | CCS(=O)(=O)Nc1ccc(NC(=O)c2cc([N+](=O)[O-])ccc2Cl)cc1 [Example 129, N-(4-Ethanesulfonylaminophenyl)-(2-chloro-5-nitrophenyl)carboxamide] | – | – |
| 0.014 | Cc1nccc(-c2cccc(NC(=O)c3cc([N+](=O)[O-])ccc3Cl)c2)n1 [Example 112, N-[3-(2-Methylpyrimidin-4-yl)phenyl]-(2-chloro-5-nitrophenyl)carboxamide] | 82.3 | – |
